From patent US20250100993A1, “2-SUBSTITUTED THIAZOLE HSD17B13 INHIBITORS AND USES THEREOF” (Inipharm, Inc., priority 2022, published 2025) come the findings set out here.

One experiment concerns the target HSD17B14 (Homo sapiens (Human), UniProt Q9BPX1). The experiment can be described thus: LC/MS estrone detection assay for HSD17B14 activity (estradiol to estrone). Format: biochemical. Conditions: selectivity for HSD17B13 over HSD17B14. Here is the method:
The liquid chromatography/mass spectrometry (LC/MS) estrone detection assay monitors the conversion of estradiol to estrone by HSD17B14. This assay was undertaken in a 96 well plates (Eppendorf deep well), in an 80 μl reaction volume containing: 8 μM of estradiol (E2; Cayman); 4 mM NAD+(Sigma); 120 nM HSD17B14 enzyme (in-house E. coli expressed His-tagged, purified, soluble protein); 1M potassium phosphate buffer pH 7.4, and 1.2% vehicle (DMSO). Reactions were incubated for 2 hours at 37° C. Estradiol (E2) conversion to estrone (E1) was quantitated by LC-MS/MS based analyte detection for E1 using LCMS grade reagents.
Reactions were terminated by the addition of two volumes of acetonitrile (MeCN; LCMS grade) containing deuterated (D4)-E1 used as internal standard (Clear Synth; 500 ng/mL final concentration). Samples were applied to pre-prepared Bond Elut-C18 extraction cartridges (3 mL; Agilent). The cartridges were washed with 1.5 mL water followed by 1.5 mL 5% aqueous methanol, and dried for 5 minutes under vacuum. They were then eluted with 4.5 mL MeCN. The eluates were dried under nitrogen and re-suspended in 200 μL of 60% methanol (LCMS grade) before submission for analysis. Standard curves of E2 and E1 in 4% DMSO were included for quantification.
Analysis of samples was performed on a XBridge BEH C18 column (Waters) using 0.1% Diethyl Amine in MeCN (mobile phase A) and 0.1% Diethyl Amine in milli-Q water (mobile phase B) in a 3 min gradient from 0-25% B. Analytes were detected in negative mode using MRM analysis, with E2 having a RT of 1.89 min and E1 having a RT of 2.07 min. Activity of the enzyme in the absence of NAD+ was used to evaluate specificity of conversion. Enzyme activity in the presence of test samples was expressed as a percentage of the uninhibited enzyme in the presence of 1.2% DMSO vehicle only, and plotted versus inhibitor concentration. Non-linear regression was performed using a four-parameter logistic model and GraphPad Prism software. All assessments were undertaken in duplicate evaluations, which were pooled during the extraction process and subsequently injected as duplicates for LC-MS/MS analysis.

The target in a further experiment is HSD17B13 (Homo sapiens (Human), UniProt Q7Z5P4). The experiment is described as follows: LC/MS estrone detection assay for HSD17B13 activity (estradiol to estrone). The format is biochemical. The conditions noted are these: estradiol substrate; for Ki: LCMS, read-out: HSD17B13 Inhibition_Estradiol Substrate_LCMS: Ki; for IC50: LC-MS/MS estrone detection. The gist of the method: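 His-tagged E. coli-expressed enzyme (30 nM) with 4 μM estradiol and 6 mM NAD+ in potassium phosphate pH 7.4, 0.5% DMSO, 2 h at 26.5° C. Estrone formation quantified by LC-MS/MS against D4-estrone standard; activity as % of uninhibited, four-parameter fit, duplicates.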
HSD17B13, sequence (Q7Z5P4 20-300): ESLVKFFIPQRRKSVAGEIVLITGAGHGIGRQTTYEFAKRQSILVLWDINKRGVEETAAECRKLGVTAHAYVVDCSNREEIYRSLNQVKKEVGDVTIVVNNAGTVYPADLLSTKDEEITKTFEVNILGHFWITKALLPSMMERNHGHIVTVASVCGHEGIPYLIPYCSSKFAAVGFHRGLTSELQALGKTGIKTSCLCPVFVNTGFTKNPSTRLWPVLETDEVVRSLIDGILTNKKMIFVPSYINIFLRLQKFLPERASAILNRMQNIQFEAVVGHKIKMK

SMILES strings stand for the structures.

HSD17B14, sequence (Q9BPX1 whole entry): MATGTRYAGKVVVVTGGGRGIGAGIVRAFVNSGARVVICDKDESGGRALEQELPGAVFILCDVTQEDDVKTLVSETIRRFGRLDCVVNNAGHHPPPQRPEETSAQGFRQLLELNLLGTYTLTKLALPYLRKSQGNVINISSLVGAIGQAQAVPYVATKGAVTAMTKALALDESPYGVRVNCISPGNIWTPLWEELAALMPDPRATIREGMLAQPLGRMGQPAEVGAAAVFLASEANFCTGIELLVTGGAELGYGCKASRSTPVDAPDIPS

What is called Ki is the equilibrium dissociation constant of an inhibitor or competing ligand from its target. Compound `O=C(Nc1sc(-c2ccccc2F)nc1C(=O)NCc1ccccc1C(F)(F)F)c1cc(Cl)c(O)c(Cl)n1` [Example 60, 5-(4,6-dichloro-5-hydroxypicolinamido)-2-(2-fluorophenyl)-N-(2-(trifluoromethyl)benzyl) thiazole-4-carboxamide] registered an HSD17B14 fold selectivity at HSD17B14 above 980 fold. Moreover, at HSD17B13, the Ki is at most 50 nM.

In the case of `CC(NC(=O)c1nc(-c2cccnc2)sc1NC(=O)c1cc(Cl)c(O)c(Cl)n1)c1ccccc1C(F)(F)F` (stereo not drawn) [Example 103], the HSD17B14 fold selectivity at HSD17B14 is above 1850 fold. At HSD17B13, the Ki was at most 50 nM.

Consider `O=C(Nc1sc(-c2cnccn2)nc1C(=O)NCc1ccccc1C(F)(F)F)c1cc(Cl)c(O)c(Cl)n1` [Example 101], for which the HSD17B14 fold selectivity at HSD17B14 is above 142 fold. The Ki on HSD17B13 was at most 50 nM.

Consider `CS(=O)(=O)c1cccc(-c2nc(C(=O)NCc3ccccc3C(F)(F)F)c(NC(=O)c3cc(Cl)c(O)c(Cl)c3)s2)c1` [Example 97], for which the HSD17B14 fold selectivity on HSD17B14 was 772 fold. The Ki at HSD17B13 was at most 50 nM.

Regarding `O=C(Nc1sc(-c2ccccc2Cl)nc1C(=O)NCc1ccccc1C(F)(F)F)c1cc(F)c(O)c(Cl)c1` [Example 89], the HSD17B14 fold selectivity on HSD17B14 worked out at 688 fold. In addition, the Ki at HSD17B13 is at most 50 nM.

The compound `O=C(Nc1sc(C2CC2)nc1C(=O)NCc1ccccc1C(F)(F)F)c1cc(Cl)c(O)c(Cl)n1` [Example 59, 2-cyclopropyl-5-(4,6-dichloro-5-hydroxypicolinamido)-N-(2-(trifluoromethyl)benzyl)thiazole-4-carboxamide] came in with an HSD17B14 fold selectivity on HSD17B14 above 331 fold. For the same compound, on HSD17B13, the Ki was at most 50 nM.

Regarding `CS(=O)(=O)c1cccc(-c2nc(C(=O)NCc3ccccc3C(F)(F)F)c(NC(=O)c3cc(Cl)c(O)c(Cl)n3)s2)c1` [Example 98], at HSD17B14, the HSD17B14 fold selectivity was 928 fold. For the same compound, the Ki on HSD17B13 is at most 50 nM.

Compound `CC(NC(=O)c1nc(-c2cccnc2)sc1NC(=O)c1cc(Cl)c(O)c(Cl)c1)c1ccccc1C(F)(F)F` (stereo not drawn) [Example 102] returned an HSD17B14 fold selectivity on HSD17B14 above 1230 fold. Also, at HSD17B13, the Ki was at most 50 nM.

As for `CC(NC(=O)c1nc(-c2ccccc2)sc1NC(=O)c1cc(Cl)c(O)c(Cl)n1)c1ccccc1C(F)(F)F` (stereo not drawn) [Example 99], the HSD17B14 fold selectivity at HSD17B14 was 253 fold. For the same compound, on HSD17B13, the Ki is at most 50 nM.

One may read the IC50 as the point on the concentration scale where inhibition reaches its midpoint. Lower therefore signals greater potency in that assay. On to `O=C(Nc1ccc(-c2ccccc2)nc1C(=O)NCc1ccccc1OC(F)(F)F)c1cc(Cl)c(O)c(Cl)n1` [Example 58, 4,6-dichloro-5-hydroxy-N-(6-phenyl-2-((2-(trifluoromethoxy)benzyl)carbamoyl)pyridin-3-yl)picolinamide], for which the IC50 against HSD17B13 was at most 100 nM.

As to `O=C(Nc1sc(-c2cnccn2)nc1C(=O)NCc1ccccc1C(F)(F)F)c1cc(Cl)c(O)c(Cl)c1` [Example 100], the HSD17B14 fold selectivity on HSD17B14 is above 843 fold. In addition, at HSD17B13, the Ki is at most 50 nM.

The compound `Cn1cc(C(=O)NCc2ccccc2C(F)(F)F)c(NC(=O)c2cc(Cl)c(O)c(Cl)n2)n1` [Example 2, 4,6-dichloro-5-hydroxy-N-(1-methyl-4-((2-(trifluoromethyl)benzyl)carbamoyl)-1H-pyrazol-3-yl)picolinamide] returned an IC50 against HSD17B13 of 100 to 500 nM.

For the compound `CC(C)CCNC(=O)c1ncsc1NC(=O)c1cc(Cl)c(O)c(Cl)n1` [Example 39, 5-(4,6-dichloro-5-hydroxypicolinamido)-N-isopentylthiazole-4-carboxamide], the IC50 on HSD17B13 was in the range of 100 to 500 nM.

For `Cn1cc(NC(=O)c2cc(Cl)c(O)c(Cl)n2)c(C(=O)NCc2ccccc2OC(F)(F)F)n1` [Example 4, 4,6-dichloro-5-hydroxy-N-(1-methyl-3-((2-(trifluoromethoxy)benzyl)carbamoyl)-1H-pyrazol-4-yl)picolinamide], the IC50 against HSD17B13 was in the range of 100 to 500 nM.

As for `O=C(Nc1scnc1C(=O)NCC1(F)CC1)c1cc(Cl)c(O)c(Cl)n1` [Example 36, 5-(4,6-dichloro-5-hydroxypicolinamido)-N-((1-fluorocyclopropyl)methyl)thiazole-4-carboxamide], at HSD17B13, the IC50 lay in the range of 1000 to 10000 nM.

Take `Cc1nc(C(=O)NCc2ccccc2OC(F)(F)F)c(NC(=O)c2cc(Cl)c(O)c(Cl)c2)s1` [Example 21, 5-(3,5-dichloro-4-hydroxybenzamido)-2-methyl-N-(2-(trifluoromethoxy)benzyl)thiazole-4-carboxamide]: the IC50 against HSD17B13 is 100 to 500 nM.

Compound `Cc1ccc(NC(=O)c2cc(Cl)c(O)c(Cl)c2)c2c(=O)n(C3CCC3c3ccccc3C(F)(F)F)c(C)nc12` (stereo not drawn) [Example 17, 3,5-dichloro-N-(2,8-dimethyl-4-oxo-3-(2-(2-(trifluoromethyl)phenyl)cyclobutyl)-3,4-dihydroquinazolin-5-yl)-4-hydroxybenzamide] showed an IC50 on HSD17B13 of 100 to 500 nM.

On HSD17B13, `Cn1c(=O)n(Cc2ccccc2C(F)(F)F)c(=O)c2c(NC(=O)c3cc(Cl)c(O)c(Cl)n3)ccc(F)c21` [Example 19, 4,6-dichloro-N-(8-fluoro-1-methyl-2,4-dioxo-3-(2-(trifluoromethyl)benzyl)-1,2,3,4-tetrahydroquinazolin-5-yl)-5-hydroxypicolinamide] displayed an IC50 of 100 to 500 nM.

As to `Cc1nc2c(F)ccc(NC(=O)c3cc(Cl)c(O)c(Cl)c3)c2c(=O)n1[C@H]1CC[C@@H]1c1ccccc1` [Example 16, 3,5-dichloro-N-(8-fluoro-2-methyl-4-oxo-3-((1S,2R)-2-phenylcyclobutyl)-3,4-dihydroquinazolin-5-yl)-4-hydroxybenzamide], the IC50 at HSD17B13 is at most 100 nM.

Regarding `O=C(Nc1nn(-c2ccccc2)cc1C(=O)NCc1ccccc1C(F)(F)F)c1cc(Cl)c(O)c(Cl)n1` [Example 8, 4,6-dichloro-5-hydroxy-N-(1-phenyl-4-((2-(trifluoromethyl)benzyl)carbamoyl)-1H-pyrazol-3-yl)picolinamide], the IC50 against HSD17B13 is 100 to 500 nM.

Consider `O=C(Nc1sc(-c2cc(CN3CCCC3)ccc2F)nc1C(=O)NCc1ccccc1C(F)(F)F)c1cc(F)c(O)c(Cl)c1` [Example 105, 5-(3-chloro-5-fluoro-4-hydroxybenzamido)-2-(2-fluoro-5-(pyrrolidin-1-ylmethyl)phenyl)-N-(2-(trifluoromethyl)benzyl)thiazole-4-carboxamide], for which, at HSD17B13, the Ki lay in the range of 50 to 100 nM.

Take `O=C(Nc1nn(C(F)F)cc1C(=O)NCc1ccccc1C(F)(F)F)c1cc(Cl)c(O)c(Cl)c1` [Example 55, 3-(3,5-dichloro-4-hydroxybenzamido)-1-(difluoromethyl)-N-(2-(trifluoromethyl)benzyl)-1H-pyrazole-4-carboxamide]: on HSD17B13, the IC50 fell in the range of 100 to 500 nM.

Compound `O=C(Nc1sc(-c2ccccc2)nc1C(=O)NCc1ccccc1C(F)(F)F)c1cc(Cl)c(O)c(Cl)n1` [Example 23, 5-(4,6-dichloro-5-hydroxypicolinamido)-2-phenyl-N-(2 (trifluoromethyl)benzyl)thiazole-4-carboxamide] showed an IC50 on HSD17B13 of at most 100 nM.

`CC(C)n1cc(C(=O)NCc2ccccc2C(F)(F)F)c(NC(=O)c2cc(Cl)c(O)c(Cl)n2)n1` [Example 48, 4,6-dichloro-5-hydroxy-N-(1-isopropyl-4-((2-(trifluoromethyl)benzyl)carbamoyl)-1H-pyrazol-3-yl)picolinamide]: at HSD17B13, the IC50 is 100 to 500 nM.

As for `Cc1nc(C(=O)NCc2ccccc2C(F)(F)F)c(NC(=O)c2cc(Cl)c(O)c(Cl)c2)s1` [Example 27, 5-(3,5-dichloro-4-hydroxybenzamido)-2-methyl-N-(2-(trifluoromethyl)benzyl)thiazole-4-carboxamide], the IC50 against HSD17B13 lay in the range of 100 to 500 nM.

`O=C(Nc1nn(CC(F)(F)F)cc1C(=O)NCc1ccccc1C(F)(F)F)c1cc(Cl)c(O)c(Cl)n1` [Example 50, 4,6-dichloro-5-hydroxy-N-(1-(2,2,2-trifluoroethyl)-4-((2-(trifluoromethyl)benzyl)carbamoyl)-1H-pyrazol-3-yl)picolinamide]: the IC50 on HSD17B13 was 100 to 500 nM.

On to `O=C(Nc1sc(N2CCOCC2)nc1C(=O)NCc1ccccc1C(F)(F)F)c1cc(Cl)c(O)c(Cl)n1` [Example 80, 5-(4,6-dichloro-5-hydroxypicolinamido)-2-morpholino-N-(2-(trifluoromethyl)benzyl)thiazole-4-carboxamide], for which the Ki on HSD17B13 was 100 to 500 nM.

With `CN1CCC(c2nc(C(=O)NCc3ccccc3C(F)(F)F)c(NC(=O)c3cc(Cl)c(O)c(Cl)n3)s2)CC1` [Example 86, 5-(4,6-dichloro-5-hydroxypicolinamido)-2-(1-methylpiperidin-4-yl)-N-(2-(trifluoromethyl)benzyl)thiazole-4-carboxamide], at HSD17B13, the Ki lay in the range of 100 to 500 nM.

On to `CN1CCC(c2nc(C(=O)NCc3ccccc3C(F)(F)F)c(NC(=O)c3cc(Cl)c(O)c(Cl)c3)s2)CC1` [Example 87], for which the Ki at HSD17B13 was in the range of 100 to 500 nM.
